Reference: US20260262643A1, “HERBICIDAL BENZOXAZINES” (FMC CORPORATION, priority 2022, published 2026)

What was measured:
barnyardgrass [1] = assay: Test C postemergence; type: in vivo, Echinochloa crusgalli; conditions: 10 days, 0 to 100 scale (0 no effect, 100 complete control)
How it was run: (§1)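 Greenhouse herbicide screen, 10-day duration. Test chemicals in solvent/surfactant blend were sprayed onto soil at sowing (pre) or onto 2–10 cm seedlings at one to two leaves (post); injury scored visually against controls, 0 no effect to 100 complete control.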

foxtail, giant [2] = assay: Test C preemergence; type: in vivo, Setaria faberi
Description: (§2) Seeds of plant species selected from barnyardgrass (Echinochloa crusgalli), blackgrass (Alopecurus myosuroides), corn (Zea mays), foxtail, giant (giant foxtail, Setaria faberi), green foxtail (Setaria viridis), goosegrass (Eleusine indica), kochia (Bassia scoparia), oat, wild (wild oat, Avena fatua), pigweed, palmer (palmer amaranth, palmer pigweed, Amaranthus palmeri), Pigweed, Redroot (redroot pigweed, Amaranthus retroflexus), ragweed (common ragweed, Ambrosia artemisiifolia), ryegrass, Italian ([…] ryegrass, Lolium multiflorum), soybean (Glycine max), and wheat (Triticum aestivum) were planted into a blend of loam soil and sand and treated preemergence with a directed soil spray using test chemicals formulated in a non-phytotoxic solvent mixture which included a surfactant. At the same time, plants selected from these crops and weed species and also galium (catchweed bedstraw, Galium aparine) and horseweed (Erigeron canadensis) were planted in pots containing the same blend of loam soil and sand and treated with postemergence applications of test chemicals formulated in the same manner. Plants ranged in height from 2 to 10 cm and were in the one- to two-leaf stage for the postemergence treatment. Treated plants and untreated controls were maintained in a greenhouse for 10 days, after which time all treated plants were compared to untreated controls and visually evaluated for injury. Plant response ratings, summarized in Table C, are based on a 0 to 100 scale where 0 is no effect and 100 is complete control. A dash (-) response means no test result.

ragweed [3] = assay: Test C postemergence; type: in vivo, Ambrosia artemisiifolia; conditions: 10 days, 0 to 100 scale (0 no effect, 100 complete control)
How it was run: as §1

blackgrass [4] = assay: Test C postemergence; type: in vivo, Alopecurus myosuroides; conditions: 10 days, 0 to 100 scale (0 no effect, 100 complete control)
How it was run: as §1

corn [5] = assay: Test C preemergence; type: in vivo, Zea mays
How it was run: as §1

ragweed [6] = assay: Test C preemergence; type: in vivo, Ambrosia artemisiifolia
How it was run: as §1

barnyardgrass [7] = assay: Test C preemergence; type: in vivo, Echinochloa crusgalli
How it was run: as §1

foxtail, giant [8] = assay: Test C postemergence; type: in vivo, Setaria faberi; conditions: 10 days, 0 to 100 scale (0 no effect, 100 complete control)
Description: as §2

horseweed = assay: Test C postemergence; type: in vivo, Erigeron canadensis; conditions: 10 days, 0 to 100 scale (0 no effect, 100 complete control)
How it was run: as §1

oat, wild [9] = assay: Test C postemergence; type: in vivo, Avena fatua; conditions: 10 days, 0 to 100 scale (0 no effect, 100 complete control)
How it was run: as §1

pigweed, palmer [10] = assay: Test C postemergence; type: in vivo, Amaranthus palmeri; conditions: 10 days, 0 to 100 scale (0 no effect, 100 complete control)
How it was run: as §1

ryegrass, Italian [11] = assay: Test C postemergence; type: in vivo, Lolium multiflorum; conditions: 10 days, 0 to 100 scale (0 no effect, 100 complete control)
How it was run: as §1

soybean [12] = assay: Test C preemergence; type: in vivo, Glycine max
How it was run: as §1

ducksalad = assay: Test D flooded paddy test; type: in vivo, Heteranthera limosa; conditions: 250 g ai/ha, applied to paddy water, visual rating after 13 to 14 days, scale 0 to 100 (0 no effect, 100 complete control)
How it was run: (§3)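 Visual ratings from 0, meaning no effect, to 100, meaning complete control, were assigned against untreated controls 13 to 14 days after compounds were added to the floodwater of pots kept 3 cm deep, with plants at the 2-leaf stage.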

blackgrass [13] = assay: Test C preemergence; type: in vivo, Alopecurus myosuroides
How it was run: as §1

pigweed, palmer [14] = assay: Test C preemergence; type: in vivo, Amaranthus palmeri
How it was run: as §1

oat, wild [15] = assay: Test C preemergence; type: in vivo, Avena fatua
How it was run: as §1

sedge, umbrella = assay: Test D flooded paddy test; type: in vivo, Cyperus difformis; conditions: 250 g ai/ha, applied to paddy water, visual rating after 13 to 14 days, scale 0 to 100 (0 no effect, 100 complete control)
How it was run: as §3

galium = assay: Test C postemergence; type: in vivo, Galium aparine; conditions: 10 days, 0 to 100 scale (0 no effect, 100 complete control)
How it was run: as §1

wheat [16] = assay: Test C preemergence; type: in vivo, Triticum aestivum
How it was run: as §1

wheat [17] = assay: Test C postemergence; type: in vivo, Triticum aestivum; conditions: 10 days, 0 to 100 scale (0 no effect, 100 complete control)
How it was run: as §1

barnyardgrass [18] = assay: Test D flooded paddy test; type: in vivo, Echinochloa crus-galli; conditions: 250 g ai/ha, applied to paddy water, visual rating after 13 to 14 days, scale 0 to 100 (0 no effect, 100 complete control)
How it was run: as §3

rice = assay: Test D flooded paddy test; type: in vivo, Oryza sativa; conditions: 250 g ai/ha, applied to paddy water, visual rating after 13 to 14 days, scale 0 to 100 (0 no effect, 100 complete control)
How it was run: as §3

corn [19] = assay: Test C postemergence; type: in vivo, Zea mays; conditions: 10 days, 0 to 100 scale (0 no effect, 100 complete control)
How it was run: as §1

ryegrass, Italian [20] = assay: Test C preemergence; type: in vivo, Lolium multiflorum
How it was run: as §1

kochia [21] = assay: Test C preemergence; type: in vivo, Bassia scoparia
How it was run: as §1

soybean [22] = assay: Test C postemergence; type: in vivo, Glycine max; conditions: 10 days, 0 to 100 scale (0 no effect, 100 complete control)
How it was run: as §1

kochia [23] = assay: Test C postemergence; type: in vivo, Bassia scoparia; conditions: 10 days, 0 to 100 scale (0 no effect, 100 complete control)
How it was run: as §1

[24] = 500 g ai/ha, preemergence, 0 to 100 scale (0 no effect, 100 complete control)
[25] = Preemergence, 125 g ai/ha, 0 to 100 scale, 0 no effect, 100 complete control

## CC(C)c1ncn(-c2cc(C(=O)N3CC(C(F)(F)F)Oc4c(Cl)cccc43)ccn2)n1 (single isomer, unassigned) [Compound 331]
Barnyardgrass [1]; 500 g ai/ha, postemergence
  Plant response rating, Barnyardgrass: 30
Barnyardgrass [1]; Postemergence, 125 g ai/ha
  Plant response rating, Barnyardgrass: 10
foxtail, giant [2]; [24]
  Foxtail, Giant plant response rating: 60
foxtail, giant [2]; [25]
  Plant response rating, Foxtail, Giant: 20
Ragweed [3]; 500 g ai/ha, postemergence
  Plant response rating, Ragweed: 0
Ragweed [3]; Postemergence, 125 g ai/ha
  Plant response rating, Ragweed: 0
Blackgrass [4]; 500 g ai/ha, postemergence
  Plant response rating, Blackgrass: 20
Blackgrass [4]; Postemergence, 125 g ai/ha
  Plant response rating, Blackgrass: 0
Corn [5]; [24]
  Corn plant response rating: 0
Corn [5]; [25]
  Plant response rating, Corn: 0
Ragweed [6]; [24]
  Ragweed plant response rating: 0
Ragweed [6]; [25]
  Plant response rating, Ragweed: 0
Barnyardgrass [7]; [24]
  Barnyardgrass plant response rating: 0
Barnyardgrass [7]; [25]
  Plant response rating, Barnyardgrass: 0
foxtail, giant [8]; 500 g ai/ha, postemergence
  Plant response rating, Foxtail, Giant: 40
foxtail, giant [8]; Postemergence, 125 g ai/ha
  Plant response rating, Foxtail, Giant: 30
horseweed; 500 g ai/ha, postemergence
  Plant response rating, Horseweed: 0
horseweed; Postemergence, 125 g ai/ha
  Plant response rating, Horseweed: 0
oat, wild [9]; 500 g ai/ha, postemergence
  Plant response rating, Oat, Wild: 0
oat, wild [9]; Postemergence, 125 g ai/ha
  Plant response rating, Oat, Wild: 0
pigweed, palmer [10]; 500 g ai/ha, postemergence
  Plant response rating, Pigweed, Palmer: 50
pigweed, palmer [10]; Postemergence, 125 g ai/ha
  Plant response rating, Pigweed, Palmer: 20
ryegrass, Italian [11]; 500 g ai/ha, postemergence
  Plant response rating, Ryegrass, Italian: 10
ryegrass, Italian [11]; Postemergence, 125 g ai/ha
  Plant response rating, Ryegrass, Italian: 0
Soybean [12]; [24]
  Soybean plant response rating: 0
Soybean [12]; [25]
  Plant response rating, Soybean: 0
ducksalad
  Plant response rating, Ducksalad (Flood): 0
Blackgrass [13]; [24]
  Blackgrass plant response rating: 70
Blackgrass [13]; [25]
  Plant response rating, Blackgrass: 20
pigweed, palmer [14]; [24]
  Pigweed, Palmer plant response rating: 100
pigweed, palmer [14]; [25]
  Plant response rating, Pigweed, Palmer: 30
oat, wild [15]; [24]
  Oat, Wild plant response rating: 20
oat, wild [15]; [25]
  Plant response rating, Oat, Wild: 0
sedge, umbrella
  Plant response rating, Sedge, Umbrella (Flood): 0
galium; 500 g ai/ha, postemergence
  Plant response rating, Galium: 50
galium; Postemergence, 125 g ai/ha
  Plant response rating, Galium: 50
Wheat [16]; [24]
  Wheat plant response rating: 0
Wheat [16]; [25]
  Plant response rating, Wheat: 0
Wheat [17]; 500 g ai/ha, postemergence
  Plant response rating, Wheat: 20
Wheat [17]; Postemergence, 125 g ai/ha
  Plant response rating, Wheat: 10
Barnyardgrass [18]
  Plant response rating, Barnyardgrass (Flood): 0
rice
  Plant response rating, Rice (Flood): 0
Corn [19]; 500 g ai/ha, postemergence
  Plant response rating, Corn: 40
Corn [19]; Postemergence, 125 g ai/ha
  Plant response rating, Corn: 10
ryegrass, Italian [20]; [24]
  Ryegrass, Italian plant response rating: 60
ryegrass, Italian [20]; [25]
  Plant response rating, Ryegrass, Italian: 60
Kochia [21]; [24]
  Kochia plant response rating: 20
Kochia [21]; [25]
  Plant response rating, Kochia: 0
Soybean [22]; 500 g ai/ha, postemergence
  Plant response rating, Soybean: 100
Soybean [22]; Postemergence, 125 g ai/ha
  Plant response rating, Soybean: 90
Kochia [23]; 500 g ai/ha, postemergence
  Plant response rating, Kochia: 70
Kochia [23]; Postemergence, 125 g ai/ha
  Plant response rating, Kochia: 40
